In publication PMC8495455, “Discovery of a transdermally deliverable pentapeptide for activating AdipoR1 to promote hair growth” (EMBO Molecular Medicine, 2021):

How the values were obtained:
[1] = test system: human ORS cells; test: MTT cell proliferation assay, ORS cells; type: cell-based; settings: 0.5 or 5 μg/ml, 48 h, Paired t-test vs control
From the text: To design transdermally deliverable AdipoR1 agonist, we further assessed the 15‐mer sequence by cutting it into several 5‐mer peptides (Fig EV1B) (Bos & Meinardi, [2000]). Based on the fact that AdipoRs are expressed in HF cells, including dermal papilla (DP) and outer root sheath (ORS) cells (Won et al, [2012]), we performed a cell proliferation assay on human DP and ORS cells to see if there is any potential biological effect of the 5‐mer peptides on the human HF cells.
Dermal papilla cells and ORS cells were seeded into a 96‐well plate (1.0 × 10^4 cells/well) with serum‐free culture media for 24 h and then treated with each candidate 5‐mer peptide (in 0.5 μg/ml or 5 μg/ml) for 48 h. After the addition of MTT solution (20 μl, 5 mg/ml) to each well, the cells were incubated for 4 h at 37°C in the dark room and then incubated with dimethyl sulfoxide (DMSO, 200 μl) for 20 min at room temperature. The samples were assessed by measuring the absorbance at 570 nm with an absorbance microplate reader (VersaMax).

[2] = test system: FGF7 mRNA; test: qRT-PCR growth factor gene expression in DP cells, FGF7; type: cell-based, human; settings: for mRNA_FGF7: DP cells
From the text: Next, we investigated the downstream effects of P5 on hair growth factor genes and proteins in DP cells. […] We tested whether P5 can also increase the mRNA levels and proteins of hair growth factors in DP cells: IGF‐1, VEGF, HGF, platelet‐derived growth factor alpha (PDGFA), and fibroblast growth factor (FGF) 7, which are known to induce or maintain the anagen phase of the hair cycle (Jindo et al, [1994]; Philpott et al, [1994]; Yano et al, [2001]; Jang, [2005]; Tomita et al, [2006]; Iino et al, [2007]).
Total RNA was isolated from P5‐treated DP cells using RNAiso Plus (#9109; TaKaRa). We used the total RNA (1 µg) for cDNA synthesis using a RevertAid First Strand cDNA Synthesis Kit (Thermo Fisher) according to the manufacturer's instructions. The mRNA expression levels were quantified on a 7500 Real‐time PCR System (Thermo Fisher) using TB Green Premix Ex Taq (TaKaRa Bio): human IGF‐1, VEGF, HGF, PDGFA, FGF7, and glyceraldehyde 3‐phosphate dehydrogenase (GAPDH) (Appendix Table S2). The relative expression levels of each gene were determined by the 2^‐ΔΔCT method.

[3] = test system: p-AMPK in ORS and DP cells of human HFs; test: IF staining p-AMPK of ex vivo cultured HF bulb; type: cell-based; settings: vs vehicle
From the text: We next investigated whether P5 can reproduce the effects of APN on hair growth promotion ex vivo (Won et al, [2012]) using ex vivo human HF organ culture model. […] The Ki‐67‐positive cell portion of the matrix area in the P5‐treated HFs was higher than that in the vehicle‐treated group (Fig 3E).
Paraffin‐embedded mouse cutaneous back tissue was sectioned (4 μm thickness) and stained with hematoxylin and eosin. For IF staining, human ORS cells cultured in FiTC‐P5, sectioned paraffin‐embedded human HFs (7 μm thickness), and sectioned paraffin‐embedded mouse cutaneous dorsal tissue or human skin tissue (5 μm thickness) were incubated at 4°C overnight with the following primary antibodies diluted in the diluent reagent (Invitrogen): phospho‐AMPK (#2535, 1:100; Cell Signaling), Ki‐67 (#M7240, 1:200; Dako), versican (#ab177480, 1:200; Abcam), or AdipoR1 antibody (#ab126611, 1:200; Abcam). After three washes with PBS, the slides were incubated with the secondary Alexa Fluor 488‐labeled anti‐mouse or rabbit IgG antibody (#ab150077, #ab150113, 1:200; Invitrogen), or Alexa Fluor 594‐labeled anti‐rabbit IgG antibody (#a11012, 1:200; Invitrogen) at 25°C for 1 h. Nuclei were counterstained with 4′,6‐diamidino‐2‐phenylindole (DAPI; #D1306, 1:1,000; Invitrogen). […] IF intensity was observed and recorded with a Nikon Eclipse Ni‐E fluorescence microscope (Nikon).

[4] = test system: C57BL/6 (WT) mice; test: Mouse hair cycle modulation, hair cycle score, WT mice; type: in vivo; settings: for Gross morphology of dorsum: topical
From the text: (§1) First, we topically applied P5 and minoxidil as a positive control (Messenger & Rundegren, [2004]) on wildtype (WT) mouse. […] Overall, the hair cycle score was higher in the P5‐treated mice than vehicle‐treated mice (Fig 4B). […] Collectively, P5 induces anagen hair cycle in vivo.
(§2) For the hair cycle modulation experiment, Adipoq ^−/− (stock #008195; JAX) (Ma et al, [2002]), Adipor1 ^−/− (Yamauchi et al, [2007]; Okada‐Iwabu et al, [2013]), or C57BL/6 (KOATECH) female mice was used (Müller‐Röver et al, [2001]). They were housed (up to four animals per cage; 23 ± 2°C, 8:00–20:00, 12 h/12 h light/dark cycle). Mice were fed a standard chow diet and provided food and water ad libitum. Mice were randomly allocated and shaved dorsally at 7.5 weeks of age. Only mice in telogen were included for the further experiments (Müller‐Röver et al, [2001]). From 8 weeks of age, the shaved dorsal area was treated with vehicle control (ethanol and polyethylene glycol, 30% and 70% v/v), P5 (0.1 mM), or minoxidil (3%) every day. The mouse hair growth score (a value from 0 to 100 based on the skin pigmentation and hair shaft density) was monitored and documented at designated days with the experimenters being blind to the conditions, following a previous study (Chai et al, [2019]). A higher score corresponds to a transition from telogen to anagen. On day 35, we obtained dorsal cutaneous tissue for histological analysis: anagen induction scores (calculated using an assigned arbitrary score; telogen = 1, anagen I–VI = 2–7) (Müller‐Röver et al, [2001]).

[5] = test system: C57BL/6 (WT) mice; test: Mouse hair cycle modulation, histology and anagen induction score, WT mice; type: in vivo
From the text: as §1
Paraffin‐embedded mouse cutaneous back tissue was sectioned (4 μm thickness) and stained with hematoxylin and eosin. For IF staining, human ORS cells cultured in FiTC‐P5, sectioned paraffin‐embedded human HFs (7 μm thickness), and sectioned paraffin‐embedded mouse cutaneous dorsal tissue or human skin tissue (5 μm thickness) were incubated at 4°C overnight with the following primary antibodies diluted in the diluent reagent (Invitrogen): phospho‐AMPK (#2535, 1:100; Cell Signaling), Ki‐67 (#M7240, 1:200; Dako), versican (#ab177480, 1:200; Abcam), or AdipoR1 antibody (#ab126611, 1:200; Abcam). After three washes with PBS, the slides were incubated with the secondary Alexa Fluor 488‐labeled anti‐mouse or rabbit IgG antibody (#ab150077, #ab150113, 1:200; Invitrogen), or Alexa Fluor 594‐labeled anti‐rabbit IgG antibody (#a11012, 1:200; Invitrogen) at 25°C for 1 h. Nuclei were counterstained with 4′,6‐diamidino‐2‐phenylindole (DAPI; #D1306, 1:1,000; Invitrogen). Microscopic observations were performed with a Nikon Eclipse Ci‐L microscope (Nikon). IF intensity was observed and recorded with a Nikon Eclipse Ni‐E fluorescence microscope (Nikon).
as §2

## GLYYF [P5, GST-fused (GST-P5) in pulldown assays]
[1]
  Cell proliferative effect, ORS cells: significant cell proliferative effects
[2]; P5 5μM, relative to Control = 1, replicate 1
  mRNA_FGF7: 1.288
[2]; P5 5μM, relative to Control = 1, replicate 2
  mRNA_FGF7: 1.147
[2]; P5 5μM, relative to Control = 1, replicate 3
  mRNA_FGF7: 3.986
[2]; P5 5μM, relative to Control = 1, replicate 4
  mRNA_FGF7: 1.127
[2]; P5 5μM, relative to Control = 1, replicate 5
  mRNA_FGF7: 3.017
[2]; P5 5μM, relative to Control = 1, replicate 6
  mRNA_FGF7: 4.5839
[2]; P5 25μM, relative to Control = 1, replicate 1
  mRNA_FGF7: 1.191
[2]; P5 25μM, relative to Control = 1, replicate 2
  mRNA_FGF7: 1.18
[2]; P5 25μM, relative to Control = 1, replicate 3
  mRNA_FGF7: 4.101
[2]; P5 25μM, relative to Control = 1, replicate 4
  mRNA_FGF7: 1.133
[2]; P5 25μM, relative to Control = 1, replicate 5
  mRNA_FGF7: 2.672
[2]; P5 25μM, relative to Control = 1, replicate 6
  mRNA_FGF7: 4.897
[2]; P5-treated DP cells, n = 6
  FGF7 mRNA expression: significantly increased
[3]
  p-AMPK in HF bulb (IF staining): prominently detected in ORS and DP cells
[4]; n = 16 mice/group, Two-way ANOVA
  Hair cycle score vs vehicle: higher
[4]; day 14
  Gross morphology of dorsum: obvious pigmentation and hair
[4]; day 35
  Gross morphology of dorsum: manifested a black hair coat
[5]; H&E
  Histological examination of HFs: anagen HFs were noticeable
[5]; One-way ANOVA with Tukey's test
  Anagen induction scores vs vehicle: significantly higher
